Measured values taken from patent publication US12035716B2, “Treatment for seeds disinfection” (VILMORIN & CIE, priority 2013, dated 2024).
Read-outs that look alike come from different tables or passages of the source.

What was measured:
CGMMV [1] = tested on: CGMMV
Method: In this case, cucumber seeds have been obtained from a commercial seed lot, naturally infected by CGMMV in the production field.
The seeds were disinfected by standard method and by vacuum infiltration method. In this case, vacuum is applied at maximal pressure of 975-985 mbar from the beginning. […] The vacuum cycles continue until floating seeds are no longer sinking. The floating seeds are then removed and discarded. This process takes 15-20 minutes.
In this case two chemicals were used.
We also tested the effect of different concentration of Na-Dichloroisocyanurate applied by vacuum infiltration on CGMMV and germination (table II) treatment E is untreated control; treatment F is vacuum infiltration of Na-Dichloroisocyanurate 0.75%; treatment G is vacuum infiltration of Na-Dichloroisocyanurate 1.5% and treatment H is vacuum infiltration of Na-Dich loroisocyanurate 2.0%.
CGMMV was tested by ELISA assay according to method 7-026 of the international rules for seed testing annex to chapter 7: seed health testing methods; International Seed Testing Association, Zurich, Switzerland, 2010.

Acidovorax citrulli [2] = settings: melon seeds
Description: (§1) The vacuum cycles continue until floating seeds are no longer sinking. The floating seeds are then removed and discarded.
The standard protocol can be obtained from the National Seed Health System, a program authorized by USDA-APHIS and administered by the Iowa State University Seed Science Center to accredit both private and public entities to perform certain activities needed to support the issuance of Federal phytosanitary certificates for the international movement of seed.

cucumber seeds [3] = settings: 1.33% solution, VI disinfection, untreated 97
Method: The germination test was performed on petri dishes (TOP) at 24 C incubator and root protrusion was counted at 4 days after seeding (TOP at 4 d).

CGMMV [4] = settings: 1.33% solution, VI disinfection; for Seed health lab results, ELISA average count: cut-off 0.130, untreated 0.841
Method: In this case, a commercial cucumber seed lot (2 kg) naturally infected by CGMMV was treated. The infected seeds were put into a reactor containing 20 liters of Na-Dichloroisocyanurate at 1.33%. The vacuum/de-vacuum cycles (i.e. vacuum infiltration) were applied gradually starting at 500 mbar and increased by 50 mbar each cycle up to the maximum of 985 mbar. Then we continued vacuum/de-vacuum cycles at maximum vacuum pressure of 985 mbar for a total of 30 cycles. […] Both fractions were separately collected. This process took 45 minutes. CGMMV was tested by ELISA assay according to method 7-026 of the international rules for seed testing annex to chapter 7: seed health testing methods; International Seed Testing Association, Zurich, Switzerland, 2010.

cucumber seeds [5] = tested on: cucumber seeds
Method: The germination test was performed according to Annex to chapter 5, International Rules for Seed Testing, International Seed Testing Association, Zurich, Switzerland, 1996.

Acidovorax citrulli [6] = settings: watermelon seeds
Description: as §1

CGMMV [7] = tested on: CGMMV; remark: listed apart in the source
Method: Samples of two commercial cucumber seed lots naturally infected by CGMMV in the production field were treated by standard disinfection or by vacuum infiltration methods. All treatments were done on 1500 seed in 300 ml solution for 40 minutes, followed by 40 minutes wash under running water. For the standard disinfection we used 2.5% Na-Dichloroisocyanurate solution and for the vacuum infiltration we used a solution containing 1.5% Na-Dichloroisocyanurate. The vacuum/de vacuum cycles were applied gradually starting at 500 mbar and increased by 100 mbar each cycle up to the maximum of 985 mbar. Then we continued vacuum/de-vacuum cycles at maximum vacuum pressure of 985 mbar for a total of 30 cycles. At the end of the treatment the floating seeds were discarded and the heavy fraction was collected, washed and dried for testing.
CGMMV was tested by ELISA assay according to method 7-026 of the international rules for seed testing annex to chapter 7: seed health testing methods; International Seed Testing Association, Zurich, Switzerland, 2010. The germination test was performed on petri dishes (TOP) at 24 C incubator and root protrusion was counted at 4 days after seeding (TOP at 4 d).

Acidovorax citrulli [8] = settings: for BFB by PCR method: melon, 1.0% solution, 30 vacuum cycles, sinking fraction, 5000 seeds
Method: The process: 10 kg of seed are added to 45 liters of 1% or 2% Na-Dichloroisocyanurate. The seeds are mixed in the solution for 30 minutes and then washed in running water for 10 minutes and then dried to the original water content.
Three batches of 1 kilograms of this seed lot were put in a 10 liter glass vessel together with 3.0 liters of disinfecting solution comprising of Na-Dichloroisocyanurate at 1.0%. Thirty cycles of vacuum/de-vacuum (each cycle having a duration of 1 to 1.5 minutes) were applied with three different level: (i) level A: full vacuum up to 975-985, (ii) level B: medium level of 740-816 mbar, and (iii) level C: low level of 576-667 mbar. After 40 minutes (i.e. after achieving the 30 cycles of vacuum/de-vacuum) the floating fractions were discarded and the sinking fractions were collected, washed for 40 minutes and dried.
The standard protocol can be obtained from the National Seed Health System, a program authorized by USDA-APHIS and administered by the Iowa State University Seed Science Center to accredit both private and public entities to perform certain activities needed to support the issuance of Federal phytosanitary certificates for the international movement of seed. See page 69 of the May 2014 edition of the “Vegetable Crop Method-Reference Manual B” National Seed Health System available at http://www.seedhealth.org/files/pdfVegetable_Crops.pdf.

[9] = seed lot A, VI disinfection 1.5%, heavy fraction
[10] = seed lot A, standard disinfection 2.5%
[11] = seed lot B, VI disinfection 1.5%, heavy fraction
[12] = seed lot B, standard disinfection 2.5%

In the case of `O=c1nc([O-])n(Cl)c(=O)n1Cl.[Na+]` [Na-Dichloroisocyanurate], the “ELISA assay result (rate of extinction at A405)” value (“ELISA assay result” below) (CGMMV [1]; Na-Dichloroisocyanurate 0.4%, standard disinfection, negative control 0.13) is reported as 0.45, the “ELISA assay result” value (CGMMV [1]; Na-Dichloroisocyanurate 0.4%, vacuum infiltration, negative control 0.13) is reported as 0.25 and the “ELISA assay result” value (CGMMV [1]; Na-Dichloroisocyanurate 0.75%, vacuum infiltration, untreated control 0.72, negative control 0.13) is reported as 0.17. For the same compound, the “ELISA assay result” value (CGMMV [1]; Na-Dichloroisocyanurate 1.5%, vacuum infiltration, untreated control 0.72, negative control 0.13) was 0.13, the “ELISA assay result” value (CGMMV [1]; Na-Dichloroisocyanurate 2.0%, vacuum infiltration, untreated control 0.72, negative control 0.13) was 0.16 and the “BFB infection after standard disinfection” value (“BFB infection” below) (Acidovorax citrulli [2]; disinfected twice by standard protocol, 1% and 2%, 10 min) was “still heavily infested”. The “BFB by sweat-box assay” value (Acidovorax citrulli [2]; vacuum infiltration, 0.5% solution, floating fraction, 10,000 seeds) was “positive”, the “BFB health test (PCR, seedling grow-out, sweat box)” value (Acidovorax citrulli [2]; vacuum infiltration, 0.5% solution, sinking fraction, 40,000 seeds tested) was “None of the seeds was found infected” and the “% Germination TOP at 4 d” value (cucumber seeds [3]; floating fraction (5%)) was 62%. For the same compound, the “% Germination TOP at 4 d” value (cucumber seeds [3]; sinking fraction (95%)) was 94%, the “Remarks (seed health)” value (CGMMV [4]; floating fraction (5%)) was “Contami-” and the “Seed health lab results, Positive/total replicates” value (CGMMV [4]; floating fraction (5%)) was 9/10. For the same compound, the “Seed health lab results, ELISA average count” value (CGMMV [4]; floating fraction (5%)) was 0.543, the “Remarks (seed health)” value (CGMMV [4]; sinking fraction (95%)) was “Clean” and the “Seed health lab results, Positive/total replicates” value (CGMMV [4]; sinking fraction (95%)) was 0/30. The “Seed health lab results, ELISA average count” value (CGMMV [4]; sinking fraction (95%)) was 0.081, the Germination % (cucumber seeds [5]; Na-Dichloroisocyanurate 0.4%, standard disinfection) was 96% and the Germination % (cucumber seeds [5]; Na-Dichloroisocyanurate 0.4%, vacuum infiltration) was 100%. It also gave a Germination % (cucumber seeds [5]; Na-Dichloroisocyanurate 0.75%, vacuum infiltration) of 100%, a Germination % (cucumber seeds [5]; Na-Dichloroisocyanurate 1.5%, vacuum infiltration) of 100% and a Germination % (cucumber seeds [5]; Na-Dichloroisocyanurate 2.0%, vacuum infiltration) of 100%. For the same compound, the “BFB infection” value (Acidovorax citrulli [6]; standard disinfection process, 1.0% Na-Dichloroisocyanurate) was “still infected”, the “BFB by sweat box assay” value (Acidovorax citrulli [6]; vacuum infiltration, 0.2% solution, sinking fraction, 4200 seeds tested) was “negative” and the “ELISA 10 replicates results, Positive/total” value (CGMMV [7]; [9]) was 0/10. The “Remarks (seed health)” value (CGMMV [7]; [9]) was “Clean”, the “ELISA 10 replicates results, Average count” value (CGMMV [7]; seed lot A, VI disinfection 1.5%, heavy fraction, cut-off 0.148, untreated 0.693) was 0.072 and the “ELISA 10 replicates results, Positive/total” value (CGMMV [7]; [10]) was 9/10. For the same compound, the “Remarks (seed health)” value (CGMMV [7]; [10]) was “Contaminated”, the “ELISA 10 replicates results, Average count” value (CGMMV [7]; seed lot A, standard disinfection 2.5%, cut-off 0.174, untreated 0.693) was 0.238 and the “ELISA 10 replicates results, Positive/total” value (CGMMV [7]; [11]) was 0/10. The “Remarks (seed health)” value (CGMMV [7]; [11]) was “Clean”, the “ELISA 10 replicates results, Average count” value (CGMMV [7]; seed lot B, VI disinfection 1.5%, heavy fraction, cut-off 0.148, untreated 0.737) was 0.075 and the “ELISA 10 replicates results, Positive/total” value (CGMMV [7]; [12]) was 4/10. The “Remarks (seed health)” value (CGMMV [7]; [12]) was “Contaminated”, the “ELISA 10 replicates results, Average count” value (CGMMV [7]; seed lot B, standard disinfection 2.5%, cut-off 0.156, untreated 0.737) was 0.177 and the “BFB infection” value (Acidovorax citrulli [8]; melon seeds, disinfected twice by standard protocol of example 5 (1% or 2%, 30 minutes)) was “still found to be BFB infected”. The “BFB by PCR method” value (Acidovorax citrulli [8]; level A full vacuum up to 975-985) was “negative”, the “BFB by PCR method” value (Acidovorax citrulli [8]; level B 740-816 mbar) was “negative” and the “BFB by PCR method” value (Acidovorax citrulli [8]; level C 576-667 mbar) was “negative”.
